Experimental data reported in the supplement of paper PMC4862054.

Key:
CAL-120 [1] = test: drug sensitivity score (DSS), CellTiter-Glo (DSS (AUC-based score)); higher = stronger drug effect (viability inhibition or cytotoxicity); extreme values may be limits of the assay; details: incubation time: 72 h
In short: (§1)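 Breast cancer cell lines were seeded in 20 µl suspension into 384-well plates already holding compound and incubated for 72 h. Each compound was tested at 5 concentrations in 10-fold steps across its own 10,000-fold range. Plates were normalised to 0.1 % DMSO and a positive kill control after CellTox Green and then CellTiter-Glo readings. The area under the fitted dose-response curve served as the basis for the drug sensitivity score.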

MDA-MB-468 = test: normalised viability (% of control), CellTiter-Blue; higher = more viable cells (about 100 = DMSO control); details: 100 nM; incubation time: 72 h
Experimental: (§2)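 DSRT, CellTiter-Blue viability, 72 h incubation. Signal is normalised to DMSO and benzethonium chloride controls. Value is the normalised response at dose 3.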

SK-BR-3 = test: as above; details: 100 nM; incubation time: 72 h
Experimental: as §2

CAL-120 [2] = test: as above; details: 100 nM; incubation time: 72 h
Experimental: as §2

BT-549 [3] = test: as above; details: 100 nM; incubation time: 72 h
Experimental: as §2

Hs578T [4] = test: as above; details: 100 nM; incubation time: 72 h
Experimental: as §2

CAL-85-1 = test: as above; details: 10 nM; incubation time: 72 h
Experimental: as §2

MDA-MB-231 = test: as above; details: 100 nM; incubation time: 72 h
Experimental: as §2

HCC1599 = test: as above; details: 100 nM; incubation time: 72 h
Experimental: as §2

MDA-MB-453 [5] = test: as above; details: 10 nM; incubation time: 72 h
Experimental: as §2

HCC1143 [6] = test: as above; details: 100 nM; incubation time: 72 h
Experimental: as §2

DU-4475 [7] = test: as above; details: 10 nM; incubation time: 72 h
Experimental: as §2

MDA-MB-436 = test: as above; details: 100 nM; incubation time: 72 h
Experimental: as §2

CAL-148 [8] = test: as above; details: 10 nM; incubation time: 72 h
Experimental: as §2

BT-474 [9] = test: as above; details: 100 nM; incubation time: 72 h
Experimental: as §2

CAL-51 [10] = test: as above; details: 10 nM; incubation time: 72 h
Experimental: as §2

HCC1937 = test: as above; details: 100 nM; incubation time: 72 h
Experimental: as §2

HDQ-P1 [11] = test: as above; details: 10 nM; incubation time: 72 h
Experimental: as §2

MFM-223 = test: as above; details: 100 nM; incubation time: 72 h
Experimental: as §2

CAL-120 [12] = test: drug sensitivity score (DSS), CellTox Green (DSS (AUC-based score)); higher = stronger drug effect (viability inhibition or cytotoxicity); extreme values may be limits of the assay; details: incubation time: 72 h
In short: as §1

BT-549 [13] = test: as above; details: incubation time: 72 h
In short: as §1

Hs578T [14] = test: as above; details: incubation time: 72 h
In short: as §1

MDA-MB-453 [15] = test: as above; details: incubation time: 72 h
In short: as §1

HCC1143 [16] = test: as above; details: incubation time: 72 h
In short: as §1

DU-4475 [17] = test: as above; details: incubation time: 72 h
In short: as §1

CAL-148 [18] = test: as above; details: incubation time: 72 h
In short: as §1

BT-474 [19] = test: as above; details: incubation time: 72 h
In short: as §1

CAL-51 [20] = test: as above; details: incubation time: 72 h
In short: as §1

HDQ-P1 [21] = test: as above; details: incubation time: 72 h
In short: as §1

SMILES | drug sensitivity score (CAL-120 [1]) | normalised viability (MDA-MB-468) | normalised viability (SK-BR-3) | normalised viability (CAL-120 [2]) | normalised viability (BT-549 [3]) | normalised viability (Hs578T [4]) | normalised viability (CAL-85-1) | normalised viability (MDA-MB-231) | normalised viability (HCC1599) | normalised viability (MDA-MB-453 [5]) | normalised viability (HCC1143 [6]) | normalised viability (DU-4475 [7]) | normalised viability (MDA-MB-436) | normalised viability (CAL-148 [8]) | normalised viability (BT-474 [9]) | normalised viability (CAL-51 [10]) | normalised viability (HCC1937) | normalised viability (HDQ-P1 [11]) | normalised viability (MFM-223) | drug sensitivity score (CAL-120 [12]) | drug sensitivity score (BT-549 [13]) | drug sensitivity score (Hs578T [14]) | drug sensitivity score (MDA-MB-453 [15]) | drug sensitivity score (HCC1143 [16]) | drug sensitivity score (DU-4475 [17]) | drug sensitivity score (CAL-148 [18]) | drug sensitivity score (BT-474 [19]) | drug sensitivity score (CAL-51 [20]) | drug sensitivity score (HDQ-P1 [21])
COc1cc(OC2CCN(C)CC2)ccc1Nc1ncc2c(n1)n(C1CCCC1)c(=O)n2C [AZ 3146] | 0.593 | 106% | 97.3% | 121% | 85% | 82% | 94.8% | 96.1% | 90.1% | 88.2% | 133% | 101% | 93.5% | 105% | 113% | 92.3% | 81.8% | 79.1% | 105% | 0 | 0 | 0 | 0 | 0 | 0 | 0 | 0 | 9.75 | 0
c1ccc2c(CCNc3ccc(Nc4ccncc4)cc3)c[nH]c2c1 [Serdemetan] | 0 | 108% | 79.7% | 81.9% | 113% | 77.2% | 102% | 85.8% | 136% | 96.7% | 76% | 103% | 113% | 83.5% | 111% | 104% | 95.2% | 106% | 92.4% | 0 | 0 | 0 | 0 | 0 | 1.51 | 6.44 | 0 | 4.55 | 0
